How the values were obtained:
Parameters in all cases: scale not given here
SETVI Foxtail, Green [1] = test: Preemergence herbicidal evaluation, SETVI; type: in vivo, Setaria viridis, (L.) Beau; details: preemergence
Outline: (§1)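 First, seed is blended with potting soil and sown over roughly an inch of soil per cup. Next, the surface is sprayed with an aqueous acetone solution delivering about 0.013–0.800 kg/ha. Finally, cups are grown in the greenhouse and rated after 4–5 weeks.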

ORYSAT Rice, Tebonnet [2] = test: Postemergence herbicidal evaluation, ORYSAT; type: in vivo, Oryza sativa, (L.); details: postemergence spray, rated about two-three weeks after treatment
Outline: (§2)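 For this test, compound in an 80/20 acetone/water vehicle with 1.0% seed oil was sprayed over two-week-old seedlings at about 0.006 to 0.400 kg per hectare. Injury was assessed visually two to three weeks on.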

[3] = test system: TRZAWR Wheat, Winter, cv Riband; test: Postemergence herbicidal evaluation, TRZAWR; type: in vivo, Triticum aestivum; details: postemergence spray, rated about two-three weeks after treatment
Outline: as §2

ABUTH Velvetleaf [4] = test: Preemergence herbicidal evaluation, ABUTH; type: in vivo, Abutilon theophrasti, Medic.; details: preemergence
Outline: as §1

[5] = test system: TRZAWR Wheat, Winter, cv Riband; test: Preemergence herbicidal evaluation, TRZAWR; type: in vivo, Triticum aestivum; details: preemergence
Outline: as §1

ABUTH Velvetleaf [6] = test: Postemergence herbicidal evaluation, ABUTH; type: in vivo, Abutilon theophrasti, Medic.; details: postemergence spray, rated about two-three weeks after treatment
Outline: as §2

ECHOG Barnyardgrass [7] = test: Postemergence herbicidal evaluation, ECHOG; type: in vivo, Echinochloa crus-galli, (L.) Beau; details: postemergence spray, rated about two-three weeks after treatment
Outline: as §2

ECHOG Barnyardgrass [8] = test: Preemergence herbicidal evaluation, ECHOG; type: in vivo, Echinochloa crus-galli, (L.) Beau; details: preemergence
Outline: as §1

ZEAMX Corn, Field [9] = test: Preemergence herbicidal evaluation, ZEAMX; type: in vivo, Zea mays, L. (Sammel-Bezeichnung); details: preemergence
Outline: as §1

[10] = test system: CHEAL Lambsquarters, Common; test: Preemergence herbicidal evaluation, CHEAL; type: in vivo, Chenopodium album, L.; details: preemergence
Outline: as §1

GLXMAW Soybean, Williams [11] = test: Preemergence herbicidal evaluation, GLXMAW; type: in vivo, Glycine max, (L.) Merr. cv Williams; details: preemergence
Outline: as §1

GLXMAW Soybean, Williams [12] = test: Postemergence herbicidal evaluation, GLXMAW; type: in vivo, Glycine max, (L.) Merr. cv Williams; details: postemergence spray, rated about two-three weeks after treatment
Outline: as §2

ZEAMX Corn, Field [13] = test: Postemergence herbicidal evaluation, ZEAMX; type: in vivo, Zea mays, L. (Sammel-Bezeichnung); details: postemergence spray, rated about two-three weeks after treatment
Outline: as §2

AMBEL Ragweed, Common [14] = test: Preemergence herbicidal evaluation, AMBEL; type: in vivo, Ambrosia artemisifolia, L.; details: preemergence
Outline: as §1

[15] = test system: IPOHE Morningglory, Ivyleaf; test: Preemergence herbicidal evaluation, IPOHE; type: in vivo, Ipomoea hederacea, (L.) Jacq.; details: preemergence
Outline: as §1

SETVI Foxtail, Green [16] = test: Postemergence herbicidal evaluation, SETVI; type: in vivo, Setaria viridis, (L.) Beau; details: postemergence spray, rated about two-three weeks after treatment
Outline: as §2

GALAP Galium [17] = test: Postemergence herbicidal evaluation, GALAP; type: in vivo, Galium aparine; details: postemergence spray, rated about two-three weeks after treatment
Outline: as §2

[18] = test system: CHEAL Lambsquarters, Common; test: Postemergence herbicidal evaluation, CHEAL; type: in vivo, Chenopodium album, L.; details: postemergence spray, rated about two-three weeks after treatment
Outline: as §2

GALAP Galium [19] = test: Preemergence herbicidal evaluation, GALAP; type: in vivo, Galium aparine; details: preemergence
Outline: as §1

AMBEL Ragweed, Common [20] = test: Postemergence herbicidal evaluation, AMBEL; type: in vivo, Ambrosia artemisifolia, L.; details: postemergence spray, rated about two-three weeks after treatment
Outline: as §2

CASOB Sicklepod [21] = test: Postemergence herbicidal evaluation, CASOB; type: in vivo, Cassia obtusifolia, L.; details: postemergence spray, rated about two-three weeks after treatment
Outline: as §2

ORYSAT Rice, Tebonnet [22] = test: Preemergence herbicidal evaluation, ORYSAT; type: in vivo, Oryza sativa, (L.); details: preemergence
Outline: as §1

[23] = test system: IPOHE Morningglory, Ivyleaf; test: Postemergence herbicidal evaluation, IPOHE; type: in vivo, Ipomoea hederacea, (L.) Jacq.; details: postemergence spray, rated about two-three weeks after treatment
Outline: as §2

CASOB Sicklepod [24] = test: Preemergence herbicidal evaluation, CASOB; type: in vivo, Cassia obtusifolia, L.; details: preemergence
Outline: as §1

CCc1ccccc1-n1nnc2cc(F)c(-n3c(=O)cc(C(F)(F)F)n(C)c3=O)cc21 [Example 25]
6.5: Postemergence herbicidal rating GLXMAW (GLXMAW Soybean, Williams [12]; 0.062 kg/ha) | IPOHE herbicidal rating ([15]; rate 0.125 kg/ha)
1.0: Postemergence herbicidal rating ORYSAT (ORYSAT Rice, Tebonnet [2]; 0.016 kg/ha) | AMBEL herbicidal rating (AMBEL Ragweed, Common [14]; rate 0.062 kg/ha) | Postemergence herbicidal rating CASOB (CASOB Sicklepod [21]; 0.062 kg/ha)
0.5: Postemergence herbicidal rating ORYSAT (ORYSAT Rice, Tebonnet [2]; 0.008 kg/ha)
6.0: ABUTH herbicidal rating (ABUTH Velvetleaf [4]; rate 0.032 kg/ha) | ABUTH herbicidal rating (ABUTH Velvetleaf [4]; rate 0.062 kg/ha) | Postemergence herbicidal rating ABUTH (ABUTH Velvetleaf [6]; 0.008 kg/ha)
2.5: Postemergence herbicidal rating TRZAWR ([3]; 0.016 kg/ha)
2.0: Postemergence herbicidal rating ORYSAT (ORYSAT Rice, Tebonnet [2]; 0.062 kg/ha) | TRZAWR herbicidal rating ([5]; rate 0.125 kg/ha) | ECHCG herbicidal rating (ECHOG Barnyardgrass [8]; rate 0.062 kg/ha) | ZEAMX herbicidal rating (ZEAMX Corn, Field [9]; rate 0.062 kg/ha) | GLXMAW herbicidal rating (GLXMAW Soybean, Williams [11]; rate 0.062 kg/ha) | Postemergence herbicidal rating AMBEL (AMBEL Ragweed, Common [20]; 0.032 kg/ha) | Postemergence herbicidal rating AMBEL (AMBEL Ragweed, Common [20]; 0.062 kg/ha) | Postemergence herbicidal rating IPOHE ([23]; 0.008 kg/ha) | CASOB herbicidal rating (CASOB Sicklepod [24]; rate 0.125 kg/ha)
9.0: SETVI herbicidal rating (SETVI Foxtail, Green [1]; rate 0.062 kg/ha) | SETVI herbicidal rating (SETVI Foxtail, Green [1]; rate 0.125 kg/ha) | ABUTH herbicidal rating (ABUTH Velvetleaf [4]; rate 0.125 kg/ha) | Postemergence herbicidal rating ABUTH (ABUTH Velvetleaf [6]; 0.032 kg/ha) | Postemergence herbicidal rating ABUTH (ABUTH Velvetleaf [6]; 0.062 kg/ha) | CHEAL herbicidal rating ([10]; rate 0.016 kg/ha) | CHEAL herbicidal rating ([10]; rate 0.032 kg/ha) | CHEAL herbicidal rating ([10]; rate 0.062 kg/ha) | CHEAL herbicidal rating ([10]; rate 0.125 kg/ha) | Postemergence herbicidal rating CHEAL ([18]; 0.016 kg/ha) | Postemergence herbicidal rating CHEAL ([18]; 0.032 kg/ha) | Postemergence herbicidal rating CHEAL ([18]; 0.062 kg/ha) | Postemergence herbicidal rating IPOHE ([23]; 0.032 kg/ha) | Postemergence herbicidal rating IPOHE ([23]; 0.062 kg/ha)
5.0: Postemergence herbicidal rating GLXMAW (GLXMAW Soybean, Williams [12]; 0.032 kg/ha) | Postemergence herbicidal rating ZEAMX (ZEAMX Corn, Field [13]; 0.062 kg/ha)
3.5: SETVI herbicidal rating (SETVI Foxtail, Green [1]; rate 0.032 kg/ha) | Postemergence herbicidal rating ZEAMX (ZEAMX Corn, Field [13]; 0.016 kg/ha) | AMBEL herbicidal rating (AMBEL Ragweed, Common [14]; rate 0.125 kg/ha)
4.0: ZEAMX herbicidal rating (ZEAMX Corn, Field [9]; rate 0.125 kg/ha) | Postemergence herbicidal rating ZEAMX (ZEAMX Corn, Field [13]; 0.032 kg/ha) | Postemergence herbicidal rating GALAP (GALAP Galium [17]; 0.032 kg/ha) | Postemergence herbicidal rating GALAP (GALAP Galium [17]; 0.062 kg/ha)
7.0: Postemergence herbicidal rating SETVI (SETVI Foxtail, Green [16]; 0.062 kg/ha)
4.5: Postemergence herbicidal rating GLXMAW (GLXMAW Soybean, Williams [12]; 0.016 kg/ha) | IPOHE herbicidal rating ([15]; rate 0.032 kg/ha)
5.5: IPOHE herbicidal rating ([15]; rate 0.062 kg/ha)
0.0: SETVI herbicidal rating (SETVI Foxtail, Green [1]; rate 0.016 kg/ha) | TRZAWR herbicidal rating ([5]; rate 0.016 kg/ha) | TRZAWR herbicidal rating ([5]; rate 0.032 kg/ha) | TRZAWR herbicidal rating ([5]; rate 0.062 kg/ha) | Postemergence herbicidal rating ECHCG (ECHOG Barnyardgrass [7]; 0.008 kg/ha) | Postemergence herbicidal rating ECHCG (ECHOG Barnyardgrass [7]; 0.016 kg/ha) | Postemergence herbicidal rating ECHCG (ECHOG Barnyardgrass [7]; 0.032 kg/ha) | Postemergence herbicidal rating ECHCG (ECHOG Barnyardgrass [7]; 0.062 kg/ha) | ECHCG herbicidal rating (ECHOG Barnyardgrass [8]; rate 0.016 kg/ha) | ECHCG herbicidal rating (ECHOG Barnyardgrass [8]; rate 0.032 kg/ha) | ZEAMX herbicidal rating (ZEAMX Corn, Field [9]; rate 0.016 kg/ha) | ZEAMX herbicidal rating (ZEAMX Corn, Field [9]; rate 0.032 kg/ha) | GLXMAW herbicidal rating (GLXMAW Soybean, Williams [11]; rate 0.016 kg/ha) | GLXMAW herbicidal rating (GLXMAW Soybean, Williams [11]; rate 0.032 kg/ha) | AMBEL herbicidal rating (AMBEL Ragweed, Common [14]; rate 0.016 kg/ha) | AMBEL herbicidal rating (AMBEL Ragweed, Common [14]; rate 0.032 kg/ha) | IPOHE herbicidal rating ([15]; rate 0.016 kg/ha) | Postemergence herbicidal rating SETVI (SETVI Foxtail, Green [16]; 0.008 kg/ha) | Postemergence herbicidal rating SETVI (SETVI Foxtail, Green [16]; 0.016 kg/ha) | Postemergence herbicidal rating GALAP (GALAP Galium [17]; 0.008 kg/ha) | Postemergence herbicidal rating GALAP (GALAP Galium [17]; 0.016 kg/ha) | GALAP herbicidal rating (GALAP Galium [19]; rate 0.016 kg/ha) | GALAP herbicidal rating (GALAP Galium [19]; rate 0.032 kg/ha) | GALAP herbicidal rating (GALAP Galium [19]; rate 0.062 kg/ha) | GALAP herbicidal rating (GALAP Galium [19]; rate 0.125 kg/ha) | Postemergence herbicidal rating AMBEL (AMBEL Ragweed, Common [20]; 0.008 kg/ha) | Postemergence herbicidal rating AMBEL (AMBEL Ragweed, Common [20]; 0.016 kg/ha) | Postemergence herbicidal rating CASOB (CASOB Sicklepod [21]; 0.008 kg/ha) | Postemergence herbicidal rating CASOB (CASOB Sicklepod [21]; 0.016 kg/ha) | Postemergence herbicidal rating CASOB (CASOB Sicklepod [21]; 0.032 kg/ha) | ORYSAT herbicidal rating (ORYSAT Rice, Tebonnet [22]; rate 0.016 kg/ha) | ORYSAT herbicidal rating (ORYSAT Rice, Tebonnet [22]; rate 0.032 kg/ha) | ORYSAT herbicidal rating (ORYSAT Rice, Tebonnet [22]; rate 0.062 kg/ha) | CASOB herbicidal rating (CASOB Sicklepod [24]; rate 0.016 kg/ha) | CASOB herbicidal rating (CASOB Sicklepod [24]; rate 0.032 kg/ha)
8.0: Postemergence herbicidal rating ABUTH (ABUTH Velvetleaf [6]; 0.016 kg/ha) | ECHCG herbicidal rating (ECHOG Barnyardgrass [8]; rate 0.125 kg/ha)
1.5: Postemergence herbicidal rating ORYSAT (ORYSAT Rice, Tebonnet [2]; 0.032 kg/ha) | Postemergence herbicidal rating TRZAWR ([3]; 0.008 kg/ha) | GLXMAW herbicidal rating (GLXMAW Soybean, Williams [11]; rate 0.125 kg/ha) | ORYSAT herbicidal rating (ORYSAT Rice, Tebonnet [22]; rate 0.125 kg/ha) | CASOB herbicidal rating (CASOB Sicklepod [24]; rate 0.062 kg/ha)
3.0: Postemergence herbicidal rating TRZAWR ([3]; 0.032 kg/ha) | Postemergence herbicidal rating TRZAWR ([3]; 0.062 kg/ha) | ABUTH herbicidal rating (ABUTH Velvetleaf [4]; rate 0.016 kg/ha) | Postemergence herbicidal rating GLXMAW (GLXMAW Soybean, Williams [12]; 0.008 kg/ha) | Postemergence herbicidal rating ZEAMX (ZEAMX Corn, Field [13]; 0.008 kg/ha) | Postemergence herbicidal rating SETVI (SETVI Foxtail, Green [16]; 0.032 kg/ha) | Postemergence herbicidal rating CHEAL ([18]; 0.008 kg/ha) | Postemergence herbicidal rating IPOHE ([23]; 0.016 kg/ha)

From patent publication US20020111274A1, “1-alkyl-3-[1-(substituted phenyl) benzotriazol-6-yl] uracils” (BASF Aktiengesellschaft, priority 2000, published 2002)
